From patent publication US10201519B2, “Stabilized pediatric suspension of carisbamate” (SK BIOPHARMACEUTICALS CO., LTD., priority 2007, dated 2019)

Test: solubility of carisbamate in water
Assay type: physicochemical
Details: described as slightly soluble
Protocol: Carisbamate has been problematic to formulate in an aqueous suspension because it is slightly soluble in water, i.e., more than 2 mg/ml, so that temperature changes can cause the carisbamate particles to dissolve in the aqueous suspension medium and then re-crystallize out on the remaining carisbamate crystals and change the size of the resulting crystals or re crystallize in a different polymorphic form. This change in crystal size or polymorphic form, e.g., from Form A to Form B, can cause an undesirable change in bioavailability of the suspension. The present invention is based in part on the discovery that the addition of hypromellose (hydroxypropyl methyl cellulose or HPMC) in the proper concentration will prevent or stabilize this crystal growth and therefore serve to stabilize the suspension maintaining bioavailability and improving shelf life of the product.

solubility: > 2000 µg/mL
SMILES: NC(=O)OC[C@@H](O)c1ccccc1Cl [Carisbamate, S-(2-(2-chlorophenyl)-2-hydroxyethyl) oxocarboxamide]
